One data set has as its system Acinetobacter baumannii. Put plainly: Antibacterial activity against Acinetobacter baumannii ATCC 19606 assessed as inhibition of bacterial growth by tube microdilution assay. The class given is functional.
In data set [1] the test system is Staphylococcus aureus. Put plainly: Antibacterial activity against Staphylococcus aureus ATCC 6538 assessed as inhibition of bacterial growth by tube microdilution assay. In kind it is functional.
Another data set concerns Erythrocyte. Put plainly: Induction of hemolysis in mouse red blood cells at 1.56 to 100 ug/ml incubated for 1 hr. In kind it is toxicity, cell-based. To be noted: dose 1.56-100 µg/ml.
For a further data set, the system named is HaCaT. Put plainly: Cytotoxicity against human HaCaT cells assessed as effect on cell viability at 3.13 to 400 ug/ml incubated for 24 hrs by CCK-8 assay. To be noted: dose 3.13-400 µg/ml. The class given is toxicity, cell-based.
The test system of another data set is HEK-293T. The data set can be described thus: Cytotoxicity against HEK293T cells assessed as effect on cell viability at 3.13 to 400 ug/ml incubated for 24 hrs by CCK-8 assay. To be noted: human, dose 3.13-400 µg/ml. The class given is toxicity, cell-based.
Data set [2] relates to Staphylococcus aureus. Put plainly: Induction of bacterial cell rupture in Staphylococcus aureus ATCC 6538 assessed as cell disruption at 5XMIC measured after 30 mins by scanning electron microscopy. In kind it is functional, organism-based.
Data set [3] relates to Staphylococcus aureus. The data set can be described thus: Ratio of MIC for bactericidal activity against Staphylococcus aureus ATCC 6538 measured after 35 passages to MIC for bactericidal activity against Staphylococcus aureus ATCC 6538 measured after short period of drug exposure. In kind it is functional.
Data set [4] relates to Staphylococcus aureus. Put plainly: Antibacterial activity against Staphylococcus aureus ATCC 6538 infected in BALB/c mouse assessed as inhibition of bacterial colonization on wounded skin at 0.5 mg/ml applied on skin and measured after 2 hrs. The class given is functional, organism-based.
Data set [5] relates to Staphylococcus aureus. The data set can be described thus: Induction of bacterial cell rupture in Staphylococcus aureus ATCC 6538 assessed as cell disruption at 5XMIC measured after 30 mins by transmission electron microscopy. In kind it is functional, organism-based.
Data set [6] relates to Staphylococcus aureus. The data set can be described thus: Bactericidal activity against Staphylococcus aureus ATCC 6538 assessed as elimination of bacterial cells at 5X to 10X MIC by killing kinetic assay. In kind it is functional, organism-based.
Another data set relates to Cell membrane. The data set can be described thus: Induction of membrane permeabilization in Staphylococcus aureus ATCC 6538 assessed as increase in fluorescence intensity at 5XMIC measured for 90 mins by propidium iodide staining based fluorescence analysis. The class given is subcellular.

Activity calls are given as the source filed them. No cut-off for these calls is given here. Where a SMILES comes first, the peptide text is derived from it. [ ]: non-standard residue; d: D form. Hmpa(2S,3S) = CC[C@H](C)[C@H](O)C(=O)O

For orientation: MIC means the lowest concentration found to suppress growth. As to `CC[C@H](C)[C@H](NC(=O)CN)C(=O)N[C@@H](CCCCN)C(=O)N[C@@H](CCCCN)C(=O)NCC(=O)O[C@H](C(=O)N[C@@H](CCCCN)C(=O)N[C@@H](CCCCN)C(=O)N[C@@H](CC(C)C)C(=O)N[C@@H](CC(C)C)C(=O)O)[C@@H](C)CC` (H-GIKKG[Hmpa(2S,3S)]KKLL-OH), the MIC in the data set with Acinetobacter baumannii and in the data set with Staphylococcus aureus [1] was over 200 µg/mL each time.
With `CC[C@H](C)[C@H](N)C(=O)N[C@@H](CCCCN)C(=O)N[C@@H](CCCCN)C(=O)NCC(=O)O[C@H](C(=O)N[C@@H](CCCCN)C(=O)N[C@@H](CCCCN)C(=O)N[C@@H](CC(C)C)C(=O)N[C@@H](CC(C)C)C(=O)O)[C@@H](C)CC` (H-IKKG[Hmpa(2S,3S)]KKLL-OH), the Activity entry in the data set on Erythrocyte, in the data set on HaCaT and in the data set with HEK-293T was “Non-toxic” throughout. The MIC with Acinetobacter baumannii and in the data set with Staphylococcus aureus [1] was over 200 µg/mL each time.
`CN[C@H](CC(C)C)C(=O)N[C@H]1C(=O)N[C@@H](CC(N)=O)C(=O)N[C@H]2C(=O)N[C@H]3C(=O)N[C@H](C(=O)N[C@H](C(=O)O)c4cc(O)cc(O)c4-c4cc3ccc4O)[C@H](O)c3ccc(c(Cl)c3)Oc3cc2cc(c3O[C@@H]2O[C@H](CO)[C@@H](O)[C@H](O)[C@H]2O[C@H]2C[C@](C)(N)[C@H](O)[C@H](C)O2)Oc2ccc(cc2Cl)[C@H]1O` [VANCOMYCIN]: the Activity entry in the data set on Staphylococcus aureus [2] is on record as “Active; Limited Cell Disruption With Most Cells Remain Intact And Unaffected”; in the data set on Staphylococcus aureus [5], “Active; Limited Cell Disruption With Most Cells Remain Intact And Unaffected”; in the data set on Staphylococcus aureus [6], “Active; Slow Killing Rate”. Also, the Ratio with Staphylococcus aureus [3] is 4. For the same compound, in the data set on Staphylococcus aureus [4], the outcome was Active. Also, in the data set with Cell membrane, the result was inactive.
As to H-FIKKVKKVKKAIKEGIKK-OH, the MIC in the data set with Acinetobacter baumannii worked out at 37.5 µg/mL; in the data set on Staphylococcus aureus [1], 75 µg/mL.
In the case of H-GIKKFIKKVKKVKKAIKE-OH, the MIC turned out to be 37.5 µg/mL in the data set on Acinetobacter baumannii and 75 µg/mL in the data set with Staphylococcus aureus [1].
As to H-IKKFIKKVKKVKKAIK-OH, the Activity result with Erythrocyte, in the data set on HaCaT and with HEK-293T was “Non-toxic” each time. Further, the MIC in the data set on Acinetobacter baumannii and in the data set with Staphylococcus aureus [1] was 4.68 µg/mL in each case.
Take H-IKKFIKKVKKVKKAIKEG-OH: the Activity entry with Erythrocyte, in the data set with HaCaT and in the data set on HEK-293T was “Non-toxic” each time. Also, the MIC in the data set on Acinetobacter baumannii came to 37.5 µg/mL; with Staphylococcus aureus [1], 75 µg/mL.
Consider H-IKKVKKVKKAIKEGIKKG-OH, for which the MIC in the data set on Acinetobacter baumannii and with Staphylococcus aureus [1] was 75 µg/mL in each case.
Regarding H-KFIKKVKKVKKAIKEGIK-OH, the figures for the MIC in the data set on Acinetobacter baumannii and with Staphylococcus aureus [1] were 37.5 µg/mL and 75 µg/mL, respectively.
In the case of H-KKFIKKVKKVKKAIKEGI-OH, the MIC came out at 37.5 µg/mL in the data set with Acinetobacter baumannii and 75 µg/mL in the data set on Staphylococcus aureus [1].
For H-RGIKKFIKKVKKVKKAIK-OH, the MIC with Acinetobacter baumannii and in the data set with Staphylococcus aureus [1] was 2.34 µg/mL throughout.
For the compound H-RRGIKKFIKKVKKVKKAIKEGIKKGIKKLL-OH, the MIC in the data set on Acinetobacter baumannii and with Staphylococcus aureus [1] was 9.37 µg/mL throughout.
Turning to H-SGGGSNIAHGPGGRRHIA-OH, the MIC in the data set with Acinetobacter baumannii and with Staphylococcus aureus [1] was over 200 µg/mL throughout.

(Values after ChEMBL document CHEMBL6092216, “Development of α-Helical Antimicrobial Peptides with Imperfect Amphipathicity for Superior Activity and Selectivity” (J Med Chem, 2024).)
